Reference: patent publication US20220281848A1, “PYRAZOLE-SUBSTITUTED PYRROLIDINONES AS HERBICIDES” (FMC Corporation, priority 2019, published 2022)

How the values were obtained:
Type in all cases: in vivo
Conditions in all cases: after 13 d
[1] = tested on: giant foxtail (Setaria faberi, SETFA); assay: Test A post-emergence, giant foxtail
Summary of the method: (§1)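 Plants sown in standard soil were grown 8 d in a glasshouse (24/16 °C day/night, 14 h light, 65% humidity), then sprayed with compound in acetone/water (50:50) with 0.5% Tween 20 at 15.625, 62.5 or 250 g/ha. Damage was scored after 13 d (0 = none, 100 = total).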

[2] = tested on: redroot pigweed (Amaranthus retroflexus, AMARE); assay: Test A pre-emergence, redroot pigweed
Summary of the method: (§2)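 Each compound is applied pre-emergence at 15.625, 62.5 or 250 g/ha, one day after seeds are sown in standard soil. Plants are then grown in a glasshouse at 24/16° C. with 14 h light and 65% humidity, and injury is scored 0–100 at 13 d.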

[3] = tested on: barnyardgrass (Echinochloa crus-galli, ECHCG); assay: Test A post-emergence, barnyardgrass
Summary of the method: as §1

[4] = tested on: barnyardgrass (Echinochloa crus-galli, ECHCG); assay: Test A pre-emergence, barnyardgrass
Summary of the method: as §2

[5] = tested on: corn (Zea mays, ZEAMX); assay: Test A pre-emergence, corn
Summary of the method: as §2

[6] = tested on: velvetleaf (Abutilon theophrasti, ABUTH); assay: Test A pre-emergence, velvetleaf
Summary of the method: as §2

[7] = tested on: ivy-leaved morning glory (Ipomoea hederacea, IPOHE); assay: Test A pre-emergence, ivy-leaved morning glory
Summary of the method: as §2

[8] = tested on: ivy-leaved morning glory (Ipomoea hederacea, IPOHE); assay: Test A post-emergence, ivy-leaved morning glory
Summary of the method: as §1

[9] = tested on: giant foxtail (Setaria faberi, SETFA); assay: Test A pre-emergence, giant foxtail
Summary of the method: as §2

[10] = tested on: redroot pigweed (Amaranthus retroflexus, AMARE); assay: Test A post-emergence, redroot pigweed
Summary of the method: as §1

[11] = tested on: velvetleaf (Abutilon theophrasti, ABUTH); assay: Test A post-emergence, velvetleaf
Summary of the method: as §1

[12] = tested on: corn (Zea mays, ZEAMX); assay: Test A post-emergence, corn
Summary of the method: as §1

Row | Structure (SMILES) | damage to plant (100=total damage; 0=no damage) SETFA ([1]; Post-Emergence at 15.625 g/ha) | damage to plant (100=total damage; 0=no damage) SETFA ([1]; Post-Emergence at 62.5 g/ha) | damage to plant (100=total damage; 0=no damage) SETFA ([1]; Post-Emergence at 250 g/ha) | damage to plant (100=total damage; 0=no damage) AMARE ([2]; Pre-Emergence at 15.625 g/ha) | damage to plant (100=total damage; 0=no damage) AMARE ([2]; Pre-Emergence at 62.5 g/ha) | damage to plant (100=total damage; 0=no damage) AMARE ([2]; Pre-Emergence at 250 g/ha) | damage to plant (100=total damage; 0=no damage) ECHCG ([3]; Post-Emergence at 15.625 g/ha) | damage to plant (100=total damage; 0=no damage) ECHCG ([3]; Post-Emergence at 62.5 g/ha) | damage to plant (100=total damage; 0=no damage) ECHCG ([3]; Post-Emergence at 250 g/ha) | damage to plant (100=total damage; 0=no damage) ECHCG ([4]; Pre-Emergence at 15.625 g/ha) | damage to plant (100=total damage; 0=no damage) ECHCG ([4]; Pre-Emergence at 62.5 g/ha) | damage to plant (100=total damage; 0=no damage) ECHCG ([4]; Pre-Emergence at 250 g/ha) | damage to plant (100=total damage; 0=no damage) ZEAMX ([5]; Pre-Emergence at 15.625 g/ha) | damage to plant (100=total damage; 0=no damage) ZEAMX ([5]; Pre-Emergence at 62.5 g/ha) | damage to plant (100=total damage; 0=no damage) ZEAMX ([5]; Pre-Emergence at 250 g/ha) | damage to plant (100=total damage; 0=no damage) ABUTH ([6]; Pre-Emergence at 15.625 g/ha) | damage to plant (100=total damage; 0=no damage) ABUTH ([6]; Pre-Emergence at 62.5 g/ha) | damage to plant (100=total damage; 0=no damage) ABUTH ([6]; Pre-Emergence at 250 g/ha) | damage to plant (100=total damage; 0=no damage) IPOHE ([7]; Pre-Emergence at 15.625 g/ha) | damage to plant (100=total damage; 0=no damage) IPOHE ([7]; Pre-Emergence at 62.5 g/ha) | other results
1 | CCn1nc([C@H]2CN(C)C(=O)[C@@H]2C(=O)Nc2ccc(F)nc2F)c2cccc(F)c21 [Compound 11] | 60 | 80 | 80 | 0 | 0 | 0 | 50 | 90 | 90 | 20 | 90 | 90 | 0 | 0 | 20 | 0 | 0 | 0 | 0 | 0 | damage to plant (100=total damage; 0=no damage) IPOHE ([7]; Pre-Emergence at 250 g/ha): 10; damage to plant (100=total damage; 0=no damage) IPOHE ([8]; Post-Emergence at 15.625 g/ha): 0; damage to plant (100=total damage; 0=no damage) IPOHE ([8]; Post-Emergence at 62.5 g/ha): 0; damage to plant (100=total damage; 0=no damage) IPOHE ([8]; Post-Emergence at 250 g/ha): 0; damage to plant (100=total damage; 0=no damage) SETFA ([9]; Pre-Emergence at 15.625 g/ha): 80; damage to plant (100=total damage; 0=no damage) SETFA ([9]; Pre-Emergence at 62.5 g/ha): 90; damage to plant (100=total damage; 0=no damage) SETFA ([9]; Pre-Emergence at 250 g/ha): 90; damage to plant (100=total damage; 0=no damage) AMARE ([10]; Post-Emergence at 15.625 g/ha): 0; damage to plant (100=total damage; 0=no damage) AMARE ([10]; Post-Emergence at 62.5 g/ha): 0; damage to plant (100=total damage; 0=no damage) AMARE ([10]; Post-Emergence at 250 g/ha): 0; damage to plant (100=total damage; 0=no damage) ABUTH ([11]; Post-Emergence at 15.625 g/ha): 0; damage to plant (100=total damage; 0=no damage) ABUTH ([11]; Post-Emergence at 62.5 g/ha): 0; damage to plant (100=total damage; 0=no damage) ABUTH ([11]; Post-Emergence at 250 g/ha): 0; damage to plant (100=total damage; 0=no damage) ZEAMX ([12]; Post-Emergence at 15.625 g/ha): 10; damage to plant (100=total damage; 0=no damage) ZEAMX ([12]; Post-Emergence at 62.5 g/ha): 10; damage to plant (100=total damage; 0=no damage) ZEAMX ([12]; Post-Emergence at 250 g/ha): 40
2 | CN1CC(c2cc(C(F)(F)F)n(C)n2)C(C(=O)Nc2cccc(F)c2F)C1=O (stereo not drawn) [Compound 12] | 0 | 0 | 0 | 0 | 0 | 10 | 0 | 0 | 0 | 0 | 0 | 10 | 0 | 0 | 20 | 0 | 0 | 0 | 0 | 0 | damage to plant (100=total damage; 0=no damage) IPOHE ([7]; Pre-Emergence at 250 g/ha): 20; damage to plant (100=total damage; 0=no damage) IPOHE ([8]; Post-Emergence at 15.625 g/ha): 0; damage to plant (100=total damage; 0=no damage) IPOHE ([8]; Post-Emergence at 62.5 g/ha): 0; damage to plant (100=total damage; 0=no damage) IPOHE ([8]; Post-Emergence at 250 g/ha): 0; damage to plant (100=total damage; 0=no damage) SETFA ([9]; Pre-Emergence at 15.625 g/ha): 0; damage to plant (100=total damage; 0=no damage) SETFA ([9]; Pre-Emergence at 62.5 g/ha): 0; damage to plant (100=total damage; 0=no damage) SETFA ([9]; Pre-Emergence at 250 g/ha): 0; damage to plant (100=total damage; 0=no damage) AMARE ([10]; Post-Emergence at 15.625 g/ha): 0; damage to plant (100=total damage; 0=no damage) AMARE ([10]; Post-Emergence at 62.5 g/ha): 0; damage to plant (100=total damage; 0=no damage) AMARE ([10]; Post-Emergence at 250 g/ha): 0; damage to plant (100=total damage; 0=no damage) ABUTH ([11]; Post-Emergence at 15.625 g/ha): 0; damage to plant (100=total damage; 0=no damage) ABUTH ([11]; Post-Emergence at 62.5 g/ha): 0; damage to plant (100=total damage; 0=no damage) ABUTH ([11]; Post-Emergence at 250 g/ha): 0; damage to plant (100=total damage; 0=no damage) ZEAMX ([12]; Post-Emergence at 15.625 g/ha): 0; damage to plant (100=total damage; 0=no damage) ZEAMX ([12]; Post-Emergence at 62.5 g/ha): 0; damage to plant (100=total damage; 0=no damage) ZEAMX ([12]; Post-Emergence at 250 g/ha): 0
